Where only a bound is given, the exact number is not on record here.

The target of one experiment is JAK2 (Homo sapiens (Human), UniProt O60674). Description: JAK2 enzyme assay (Z'-LYTE). It is filed as biochemical. To be noted: 25 μM ATP; arithmetic mean of two or more experiments.
The target of a further experiment is AURKA (Aurora A) (Homo sapiens (Human), UniProt O14965). The experiment in a line: Aurora-A enzyme assay (Z'-LYTE). The following applies: 10 μM ATP; arithmetic mean of two or more experiments. Type of experiment: biochemical.
For a further experiment, the target named is TTK (Homo sapiens (Human), UniProt P33981). The experiment in a line: TTK enzyme assay (LanthaScreen Eu Kinase Binding). The following applies: arithmetic mean of two or more experiments. In general terms: Time-resolved FRET reads energy transfer from a long-lived donor to a nearby acceptor.
Experiment [1] addresses Full length human DNAPK protein (Homo sapiens (Human), UniProt P78527). Description: DNAPK enzyme potency assay (DNA-PK enz), TR-FRET. To be noted: arithmetic mean of two or more experiments; 18 μM ATP. Type of experiment: biochemical.
The target in the next experiment is AURKB (Aurora B) (Homo sapiens (Human), UniProt Q96GD4). Description: Aurora-B enzyme assay (Z'-LYTE). It is filed as biochemical. The following applies: 75 μM ATP; arithmetic mean of two or more experiments.
Sequence of AURKB (Aurora B) (Q96GD4 whole entry): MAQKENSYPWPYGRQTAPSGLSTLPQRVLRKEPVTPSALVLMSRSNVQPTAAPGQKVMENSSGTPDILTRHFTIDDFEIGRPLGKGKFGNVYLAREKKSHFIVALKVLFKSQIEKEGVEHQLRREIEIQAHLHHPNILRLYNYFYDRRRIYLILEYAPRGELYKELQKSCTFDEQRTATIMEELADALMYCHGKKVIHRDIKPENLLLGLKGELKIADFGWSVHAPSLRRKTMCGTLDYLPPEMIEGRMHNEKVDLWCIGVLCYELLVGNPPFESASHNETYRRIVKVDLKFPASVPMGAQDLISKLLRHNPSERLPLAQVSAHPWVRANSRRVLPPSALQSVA

Sequence of TTK (P33981 whole entry): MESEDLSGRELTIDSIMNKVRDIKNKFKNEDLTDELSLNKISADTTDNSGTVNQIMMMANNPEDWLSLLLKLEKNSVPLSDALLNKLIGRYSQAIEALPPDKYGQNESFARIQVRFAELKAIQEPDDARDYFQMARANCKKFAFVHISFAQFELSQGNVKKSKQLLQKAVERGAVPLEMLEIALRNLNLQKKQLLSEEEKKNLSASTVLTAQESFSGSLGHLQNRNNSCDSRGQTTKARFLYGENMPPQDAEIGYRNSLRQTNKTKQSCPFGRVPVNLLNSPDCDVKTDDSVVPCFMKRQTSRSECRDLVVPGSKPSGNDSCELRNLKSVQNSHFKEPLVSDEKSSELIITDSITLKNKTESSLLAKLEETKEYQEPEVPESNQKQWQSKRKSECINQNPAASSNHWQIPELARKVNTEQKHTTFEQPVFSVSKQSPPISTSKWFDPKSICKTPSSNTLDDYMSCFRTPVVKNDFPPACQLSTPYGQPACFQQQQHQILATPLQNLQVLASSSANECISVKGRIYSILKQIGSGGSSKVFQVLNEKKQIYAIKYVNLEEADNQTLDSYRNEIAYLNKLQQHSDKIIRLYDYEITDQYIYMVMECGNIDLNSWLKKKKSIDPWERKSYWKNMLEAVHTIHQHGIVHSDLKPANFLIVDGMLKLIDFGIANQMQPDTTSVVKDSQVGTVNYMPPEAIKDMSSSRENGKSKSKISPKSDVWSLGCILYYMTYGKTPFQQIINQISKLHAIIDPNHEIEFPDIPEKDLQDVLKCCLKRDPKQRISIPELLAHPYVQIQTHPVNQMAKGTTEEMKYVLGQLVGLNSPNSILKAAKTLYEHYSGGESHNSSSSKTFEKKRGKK
Sequence of JAK2 (O60674 whole entry): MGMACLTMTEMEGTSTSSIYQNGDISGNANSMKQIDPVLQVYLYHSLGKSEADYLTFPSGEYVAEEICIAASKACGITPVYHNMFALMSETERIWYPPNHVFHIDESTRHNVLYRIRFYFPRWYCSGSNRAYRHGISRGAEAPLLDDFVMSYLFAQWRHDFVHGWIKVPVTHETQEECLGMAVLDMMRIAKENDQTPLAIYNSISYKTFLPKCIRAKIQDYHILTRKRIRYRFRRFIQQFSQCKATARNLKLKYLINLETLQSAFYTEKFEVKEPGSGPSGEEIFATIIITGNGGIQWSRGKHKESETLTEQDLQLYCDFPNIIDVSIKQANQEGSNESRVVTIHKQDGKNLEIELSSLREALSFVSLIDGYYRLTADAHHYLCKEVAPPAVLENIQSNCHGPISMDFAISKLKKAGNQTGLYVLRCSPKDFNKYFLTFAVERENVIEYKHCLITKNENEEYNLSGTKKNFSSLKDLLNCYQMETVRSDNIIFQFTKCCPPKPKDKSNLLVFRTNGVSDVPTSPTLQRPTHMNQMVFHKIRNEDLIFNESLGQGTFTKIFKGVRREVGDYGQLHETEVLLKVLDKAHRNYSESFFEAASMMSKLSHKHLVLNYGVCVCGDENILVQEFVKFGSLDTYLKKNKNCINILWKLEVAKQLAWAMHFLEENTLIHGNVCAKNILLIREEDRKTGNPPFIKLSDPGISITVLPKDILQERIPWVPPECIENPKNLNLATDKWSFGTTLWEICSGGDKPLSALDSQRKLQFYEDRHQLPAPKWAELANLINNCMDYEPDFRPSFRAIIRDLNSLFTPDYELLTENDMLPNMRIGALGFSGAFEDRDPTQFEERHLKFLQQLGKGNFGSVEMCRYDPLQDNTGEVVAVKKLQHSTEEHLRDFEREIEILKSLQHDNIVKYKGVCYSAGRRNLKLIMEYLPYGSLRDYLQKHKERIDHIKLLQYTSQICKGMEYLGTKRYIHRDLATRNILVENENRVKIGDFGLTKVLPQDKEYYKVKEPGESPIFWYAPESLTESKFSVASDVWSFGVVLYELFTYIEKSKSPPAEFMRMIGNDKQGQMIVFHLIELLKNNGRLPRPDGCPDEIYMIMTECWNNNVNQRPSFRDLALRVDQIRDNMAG
Sequence of AURKA (Aurora A) (O14965 whole entry): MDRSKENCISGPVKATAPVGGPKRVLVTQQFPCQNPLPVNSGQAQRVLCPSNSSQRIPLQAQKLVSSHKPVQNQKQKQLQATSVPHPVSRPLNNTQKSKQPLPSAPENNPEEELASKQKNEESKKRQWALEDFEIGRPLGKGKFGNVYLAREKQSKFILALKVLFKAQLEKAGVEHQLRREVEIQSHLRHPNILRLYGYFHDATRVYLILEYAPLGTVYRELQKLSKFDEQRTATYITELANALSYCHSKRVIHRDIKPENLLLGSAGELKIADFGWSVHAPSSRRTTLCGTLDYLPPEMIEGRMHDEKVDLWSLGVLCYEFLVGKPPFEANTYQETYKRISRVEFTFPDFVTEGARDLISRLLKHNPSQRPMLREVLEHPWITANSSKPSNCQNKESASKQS

Consider `COCCN1CCC(n2c(=O)n(C)c3cnc(Nc4cc5cccnc5cc4C)nc32)CC1` [Example 49, 9-(1-(2-methoxyethyl)piperidin-4-yl)-7-methyl-2-((7-methylquinolin-6-yl)amino)-7,9-dihydro-8H-purin-8-one], for which, on JAK2, the “JAK2 enz pIC50” value is under 5. Also, the “AurA enz pIC50” value at AURKA (Aurora A) is reported as under 5. Also, the “TTK enz pIC50” value at TTK worked out at 5.7. Moreover, the “DNA-PK enz pIC50” value in experiment [1] was 8.8. On AURKB (Aurora B), the “AurB enz pIC50” value is given as under 5.
Regarding `CCN1CCC(n2c(=O)n(C)c3cnc(Nc4cc5cccnc5cc4C)nc32)CC1` [Example 50, 9-(1-ethylpiperidin-4-yl)-7-methyl-2-((7-methylquinolin-6-yl)amino)-7,9-dihydro-8H-purin-8-one], the “JAK2 enz pIC50” value at JAK2 is recorded as under 5. In addition, the “AurA enz pIC50” value on AURKA (Aurora A) is reported as under 5. Besides, the “TTK enz pIC50” value at TTK is 5.2. Moreover, the “DNA-PK enz pIC50” value in experiment [1] was 8.4. In addition, at AURKB (Aurora B), the “AurB enz pIC50” value is on record as under 5.
For the compound `CC(=O)N1CCC(n2c(=O)n(C)c3cnc(Nc4cc5cccnc5cc4C)nc32)CC1` [Example 51, 9-(1-acetylpiperidin-4-yl)-7-methyl-2-((7-methylquinolin-6-yl)amino)-7,9-dihydro-8H-purin-8-one], at JAK2, the “JAK2 enz pIC50” value is under 5. The “AurA enz pIC50” value at AURKA (Aurora A) is under 5. Besides, at TTK, the “TTK enz pIC50” value amounted to 6.4. The “DNA-PK enz pIC50” value in experiment [1] is over 10. Moreover, on AURKB (Aurora B), the “AurB enz pIC50” value was under 5.
